Source: patent US5831026A, “Process for purifying factor VIII” (Pharmacia & Upjohn AB, priority 1994, dated 1998)
Read-outs that look alike come from different tables or passages of the source.

Tests used:
factor VIII [1] = settings: ambient temperature, vs zero-time value
Protocol: Conditioned mediums (containing human serum albumin) from four harvests being different from the previous Examples were clarified and buffered with NH4 Ac. Each resulting solution, with a pH of 6.8, was loaded onto a column containing SP SEPHAROSE® FF. This cation-exchange chromatography step was performed at about 8° C. After washing, factor VIII was eluted with a salt buffer containing 0.8M NaCl and 0.1M NH4 Ac. The washing liquid as well as the elution liquid contained 3 mM EDTA. Tests without EDTA present were carried out for comparison. The procoagulant activity of factor VIII was determined by use of a chromogenic substrate method, COATEST® Factor VIII kit (Chromogenix AB of Sweden) after storage at ambient temperature for up to 24 hours. The relative standard deviation (RSD) of the method is 7%.

factor VIII [2] = test: Activity of factor VIII after addition of complexing agent to eluted solution from SP Sepharose FF, COATEST chromogenic assay; type: biochemical; settings: Example 6 (0.4M NaCl eluate)
Protocol: Tests without EDTA present were carried out for comparison.
(§1) A conditioned medium (containing human serum albumin) from a different harvest than the previous Examples, was clarified and buffered with NH4 Ac. […] After elution, various amounts of EDTA were added to the resulting solution. Tests without EDTA present were carried out for comparison. The procoagulant activity of factor VIII was determined after storage at ambient temperature for up to 246 hours, in accordance to the procedure described in Example 5.
as §1, with “28” for “246”
A conditioned medium (containing human serum albumin) from a different harvest than the previous Examples, was clarified and buffered with NH4 Ac. The resulting solution was loaded onto a column containing SP SEPHAROSE® FF. This cation-exchange chromatography step was performed at 10° C. […] After elution, EDTA or 1,10-Phenanthroline were added to the resulting solution.

O=C(O)CN(CCN(CC(=O)O)CC(=O)O)CC(=O)O [EDTA, ethylenediamine tetraacetic acid]
Factor VIII activity (%) In preparation with 3 mM EDTA (factor VIII [1]; harvest solution 1, S-eluate storage 0 h): 100%
Factor VIII activity (%) In preparation with 3 mM EDTA (factor VIII [1]; harvest solution 1, S-eluate storage 6 h): 98%
Factor VIII activity (%) In preparation with 3 mM EDTA (factor VIII [1]; harvest solution 1, S-eluate storage 24 h): 100%
Factor VIII activity (%) In preparation with 3 mM EDTA (factor VIII [1]; harvest solution 2, S-eluate storage 0 h): 100%
Factor VIII activity (%) In preparation with 3 mM EDTA (factor VIII [1]; harvest solution 2, S-eluate storage 6 h): 101%
Factor VIII activity (%) In preparation with 3 mM EDTA (factor VIII [1]; harvest solution 2, S-eluate storage 24 h): 98%
Factor VIII activity (%) In preparation with 3 mM EDTA (factor VIII [1]; harvest solution 3, S-eluate storage 0 h): 100%
Factor VIII activity (%) In preparation with 3 mM EDTA (factor VIII [1]; harvest solution 3, S-eluate storage 6 h): 109%
Factor VIII activity (%) In preparation with 3 mM EDTA (factor VIII [1]; harvest solution 3, S-eluate storage 24 h): 109%
Factor VIII activity (%) In preparation with 3 mM EDTA (factor VIII [1]; harvest solution 4, S-eluate storage 0 h): 100%
Factor VIII activity (%) In preparation with 3 mM EDTA (factor VIII [1]; harvest solution 4, S-eluate storage 6 h): 103%
Factor VIII activity (%) In preparation with 3 mM EDTA (factor VIII [1]; harvest solution 4, S-eluate storage 24 h): 102%
Activity of factor VIII in % of the initial value (factor VIII [2]; 0.01 mM EDTA, storage 0 h ambient): 100%
Activity of factor VIII in % of the initial value (factor VIII [2]; 0.01 mM EDTA, storage 2.5 h ambient): 77%
Activity of factor VIII in % of the initial value (factor VIII [2]; 0.01 mM EDTA, storage 5 h ambient): 59%
Activity of factor VIII in % of the initial value (factor VIII [2]; 0.01 mM EDTA, storage 10 h ambient): 32%
Activity of factor VIII in % of the initial value (factor VIII [2]; 0.01 mM EDTA, storage 24 h ambient): 1.9%
Activity of factor VIII in % of the initial value (factor VIII [2]; 0.03 mM EDTA, storage 0 h ambient): 100%
Activity of factor VIII in % of the initial value (factor VIII [2]; 0.03 mM EDTA, storage 2.5 h ambient): 76%
Activity of factor VIII in % of the initial value (factor VIII [2]; 0.03 mM EDTA, storage 5 h ambient): 59%
Activity of factor VIII in % of the initial value (factor VIII [2]; 0.03 mM EDTA, storage 10 h ambient): 33%
Activity of factor VIII in % of the initial value (factor VIII [2]; 0.03 mM EDTA, storage 24 h ambient): 2.1%
Activity of factor VIII in % of the initial value (factor VIII [2]; 0.1 mM EDTA, storage 0 h ambient): 100%
Activity of factor VIII in % of the initial value (factor VIII [2]; 0.1 mM EDTA, storage 2.5 h ambient): 82%
Activity of factor VIII in % of the initial value (factor VIII [2]; 0.1 mM EDTA, storage 5 h ambient): 65%
Activity of factor VIII in % of the initial value (factor VIII [2]; 0.1 mM EDTA, storage 10 h ambient): 43%
Activity of factor VIII in % of the initial value (factor VIII [2]; 0.1 mM EDTA, storage 24 h ambient): 4.6%
Activity of factor VIII in % of the initial value (factor VIII [2]; 0.3 mM EDTA, storage 0 h ambient): 100%
Activity of factor VIII in % of the initial value (factor VIII [2]; 0.3 mM EDTA, storage 2.5 h ambient): 79%
Activity of factor VIII in % of the initial value (factor VIII [2]; 0.3 mM EDTA, storage 5 h ambient): 71%
Activity of factor VIII in % of the initial value (factor VIII [2]; 0.3 mM EDTA, storage 10 h ambient): 55%
Activity of factor VIII in % of the initial value (factor VIII [2]; 0.3 mM EDTA, storage 24 h ambient): 11%
Activity of factor VIII in % of the initial value (factor VIII [2]; 1.0 mM EDTA, storage 0 h ambient): 100%
Activity of factor VIII in % of the initial value (factor VIII [2]; 1.0 mM EDTA, storage 2.5 h ambient): 90%
Activity of factor VIII in % of the initial value (factor VIII [2]; 1.0 mM EDTA, storage 5 h ambient): 97%
Activity of factor VIII in % of the initial value (factor VIII [2]; 1.0 mM EDTA, storage 10 h ambient): 97%
Activity of factor VIII in % of the initial value (factor VIII [2]; 1.0 mM EDTA, storage 24 h ambient): 75%
Activity of factor VIII in % of the initial value (factor VIII [2]; 1.0 mM EDTA, storage 48 h ambient): 54%
Activity of factor VIII in % of the initial value (factor VIII [2]; 3.0 mM EDTA, storage 0 h ambient): 100%
Activity of factor VIII in % of the initial value (factor VIII [2]; 3.0 mM EDTA, storage 2.5 h ambient): 92%
Activity of factor VIII in % of the initial value (factor VIII [2]; 3.0 mM EDTA, storage 5 h ambient): 102%
Activity of factor VIII in % of the initial value (factor VIII [2]; 3.0 mM EDTA, storage 10 h ambient): 104%
